Assay results as given in US12668610B2, “Compounds for drug delivery across blood-brain barrier” (University of Houston System, priority 2020, dated 2026).
Numbered stars: 1 amine (or outer) side, 2 acyl side, 3 side chain; on linkers, the order of the positions; unused ones are H or OH. Square brackets hold non-standard residues; d marks the D form. Peptide text beside a SMILES is read from it. N((CH2)3OiPr)Gly = CC(C)OCCCNCC(=O)O; X1 = CC(c1ccccc1)N(CC(=O)[*:2])[*:1]; Nleu = CC(C)CNCC(=O)O; Nlys = NCCCCNCC(=O)O; Nme = COCCNCC(=O)O

Legend:
[1] = Stability in PBS pH 7.4 (HPLC); type: physicochemical; settings: 37° C., 350 μg/ml
Method: (§1) HPLC Analysis. RP-HPLC was conducted on an LC-20A liquid chromatographic system (Shimadzu, Japan). In detail, the HPLC system consisted of a Shimadzu LC-20AD solvent delivery pump, a SIL-20A auto-sampler, and a Shimadzu SPD-M20A UV/Vis detector. The TRBP-6 peptoid was analyzed using a Phenomenex® HPLC C18 column (250×4.6 mm, 5 μm) at room temperature. The mobile phase was composed of solvent A (0.1% TFA in water) and solvent B (0.1% TFA in acetonitrile, TFA: trifluoroacetic acid). An aliquot of 10 μl of TRBP-6 peptoid solution (350 μg/ml in ACN:H2O, 1:1) was injected into HPLC system. An isocratic method with flow rate of 1 ml/min was applied in 30% B for 15 min for TRBP-6. The detection wavelength was set to 220 nm. The data was acquired and processed with LabSolutions version 5.92. HPLC chromatograms for TRBP-6 are shown in FIG. 10, namely (A) PDA Chromatogram, and (B) PDA Spectrum. FIG. 10(A) is a RP-HPLC chromatogram of TRBP-6 (retention time tR=4.904 min) obtained by above HPLC method to illustrate the purity of the synthesized TRBP-6. FIG. 10(B) is a plot of UV absorbance spectrum of TRBP-6 obtained from injecting TRBP-6 into the HPLC column to show the wavelength of maximum UV absorbance of TRBP-6 (λmax=216 nm). Stability in PBS pH 7.4.
TRBP-6 peptoid was diluted with PBS pH 7.4 to 350 μg/ml. The solution was incubated in the water bath at 37° C. with gentle shaking. The aliquots (50 μl) were withdrawn from the TRBP-6 solution at different time intervals (0, 1, 3, 6, 9, 24 h). At each time point, 10 μl of solution was injected into HPLC for analysis. To examine the reproducibility, the experiments were carried out in triplicate.

[2] = In vivo biodistribution study of Cy5.5-labeled peptoids in CD-1 mice (IVIS imaging)
Method: The activity of these compounds to deliver Cy5.5 fluorescent dye into the brains of mice was investigated. […] The Cy5.5 labeled peptoids or Cy5.5-Ang peptide were injected intravenously to CD-1 mice (25 nmol/mouse, n=4 per compound) and imaged using IVIS imager. The mice were sacrificed at 30 minutes, the heart was perfused with 10 mL of PBS, blood and organs were collected for ex vivo imaging.
Biodistribution of Cy5.5-labeled peptoids and control Cy5.5-Ang was performed on healthy female CD-1 mice (6-8 weeks old, n=4 per group). Fluorescently labeled peptoids and Cy5.5-Ang were prepared in 100 μl saline (25 nmol of Cy5.5-TRBP in 100 μl saline per mouse) were injected intravenously via tail vein into mice. The whole body imaging of fluorescence signal was measured at 5, 15 and 30 min using the IVIS Spectrum in vivo imaging system (PerkinElmer). At 30 min, mice were euthanized and brain was perfused with 10 mL of 10% heparinized PBS at […] flow rate via left ventricle of mice. A small incision to the right atrium was made using iris scissors before perfusion. After brain perfusion, the vital organs (brain, heart, lung, liver, spleen also blood and plasma) were collected for ex vivo imaging. The fluorescence intensity was measured at wavelength with an excitation of 660 nm and maximum emission at 710 nm. The organ region of interest (ROI) was measured and analyzed using Living image software. Data of the experiments were expressed as mean±SD and analyzed by One-way ANOVA with Dunnett's multiple comparison test. The statistical analysis was done in Graphpad Prism (Graphpad Inc., version 7.04), the results were considered statistically significant if p<0.05.

[3] = system: transferrin receptor positive HeLa cells; experiment: Validation of on-bead two-color binding with resynthesized compound on TentaGel beads; type: cell-based, human; settings: 1.0 hour at room temperature, fluorescence microscope
Method: The on-bead two-color combinatorial cell-screening was validated by resynthesizing the compounds on tentagel beads and incubating them with transferrin receptor positive HeLa cells and transferrin receptor negative Hela cells separately as well as a mixture of these cells. The beads specifically bound with the transferrin receptor positive HeLa cells. Results are shown in FIG. 3, with the cells shown on the left column and the beads containing TRBP6 after incubation with the cells shown in the right column.
Nearly 50,000 peptoid library beads were washed two times in DMEM medium containing 10% FBS (media) and then incubated in 1.0 ml (DMEM+10% FBS) for 1.0 hour in a polypropylene tube. Transferrin receptor positive HeLa cells and transferrin receptor negative HeLa cells were removed from culture plates with GIBCO enzyme free cell dissociation buffer 2.0 ml per plate for 20 minutes at 37° C. Cells were washed and suspended in DMEM+10% FBS media. Cells were counted and distributed in 1.5 ml microcentrifuge tubes with 1.0×10^6 cells in 1.0 ml of media. Then the cell labeling procedure was conducted as follows: 1.0 μl each of Qtracker reagent A and B were mixed in a 1.5 ml microcentrifuged tubes and incubated for 5.0 minutes at room temperature. […] Labeled cells were visualized with long-pass filter of BX-51 fluorescence microscope (Olympus, PA) with a color camera. […]

[4] = Solubility in water by titration; type: physicochemical; settings: deionised water; DI water
Method: Solubility of TRBP-6 peptoid was determined by titration. Briefly, a precise amount (5 mg) of TRBP-6 was measured in a transparent 1.5 ml Eppendorf tube. DI water was added dropwise (˜5 μl/drop) into the tube until the solids were completely dissolved and the solution was clear. Solubility was calculated as the ratio of quantity of peptoid and the total volume of DI water. […] The solubility of TRBP6 in water is shown below.

[5] = Stability in human plasma (HPLC); type: in vitro ADME; settings: 37° C.
Method: as §1
TRBP-6 peptoid solution with a concentration of 5 mg/ml in PBS was diluted to 1.4 mg/ml by human plasma. After incubation at 37° C. in human plasma for 0, 1, 3, 6, 9 and 24 h, 50 μl of the mixture was quenched with 150 μl of cold acetonitrile and centrifuged at […]×20 min. The supernatant (100 μl) was detected by HPLC. The assay was performed in triplicates.

[6] = biological target: T1, transferrin receptor (Homo sapiens, UniProt P02786); experiment: In vitro pull-down assay with compound-conjugated beads and western blot; type: binding; settings: lysates of transferrin receptor positive or negative HeLa cells, compound-conjugated beads, 4° C. overnight, western blot anti-hTfR
T1 construct: Cell lysates from HeLa cells with transferrin receptor expression or transferrin receptor knockdown were extracted using RIPA buffer; endogenous in cells; host or cells: HeLa (ATCC)
T1 sequence (P02786 whole entry): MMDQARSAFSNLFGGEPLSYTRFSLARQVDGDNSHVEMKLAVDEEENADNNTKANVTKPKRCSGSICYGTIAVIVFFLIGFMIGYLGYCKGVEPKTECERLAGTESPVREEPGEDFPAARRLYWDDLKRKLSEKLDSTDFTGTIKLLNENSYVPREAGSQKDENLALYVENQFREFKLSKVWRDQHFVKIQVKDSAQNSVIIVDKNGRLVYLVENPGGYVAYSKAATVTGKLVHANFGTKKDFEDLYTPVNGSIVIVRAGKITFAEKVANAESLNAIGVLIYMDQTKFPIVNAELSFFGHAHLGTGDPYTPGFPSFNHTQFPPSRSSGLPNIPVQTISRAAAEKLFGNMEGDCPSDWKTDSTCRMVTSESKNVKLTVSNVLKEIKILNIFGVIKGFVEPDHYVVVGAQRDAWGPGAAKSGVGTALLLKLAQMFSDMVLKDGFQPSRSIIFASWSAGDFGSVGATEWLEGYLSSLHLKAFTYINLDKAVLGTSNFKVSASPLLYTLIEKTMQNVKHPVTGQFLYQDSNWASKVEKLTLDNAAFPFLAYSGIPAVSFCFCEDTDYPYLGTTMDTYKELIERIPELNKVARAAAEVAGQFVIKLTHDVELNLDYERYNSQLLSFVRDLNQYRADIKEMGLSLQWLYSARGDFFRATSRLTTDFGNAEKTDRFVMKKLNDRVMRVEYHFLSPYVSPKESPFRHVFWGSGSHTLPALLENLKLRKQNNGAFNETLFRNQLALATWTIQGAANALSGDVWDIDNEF
Method: The binding of three exemplary compounds to the transferrin receptor was confirmed in a pull-down assay. Cell lysates from transferrin receptor positive or negative HeLa cells were extracted using RIPA buffer, and subsequently incubated with TRBP3, TRBP5, or TRBP6 conjugated beads at 4° C. overnight. The beads were then washed with RIPA buffer for 3 times, and the binding proteins were eluted with 1% SDS. The yielded lysates were then applied onto 10% SDS-PAGE gel and subjected to western blotting analysis with antibody against transferrin receptor.
Cell lysates from HeLa cells with transferrin receptor expression or transferrin receptor knockdown were extracted using RIPA buffer (Alfa Aesar) supplemented with protease inhibitors (Roche), and subsequently incubated with TRBP6, TRBP3, and TRBP5 conjugated beads at 4° C. overnight. The beads were then washed with RIPA buffer for 3 times, and the binding proteins were eluted with 1% SDS at 95° C. for 5 mins. The yielded lysates were then mixed with 4× Laemmli Sample Buffer (loading buffer) (Bio-Rad). […]
Cells were lysed in RIPA buffer (1% NP-40, 0.5% sodium deoxycholate, 0.1% SDS in PBS). […] Protein concentration was determined by Bio-Rad DC protein assay (Bio-Rad). […] Signals of targeted proteins were detected by the Immun-Star HRP peroxide Luminol/Enhancer (Bio-Rad) and recorded on ChemiDoc Touch Imaging System (Bio-Rad). […]

Which “TRBP-6 amount remains (%) in PBS pH 7.4” value ([1]; 0 h) does the source give for `COCCN(CC(=O)NC(CCCCN)C(=O)NC(CCSC)C(N)=O)C(=O)CN(CC(C)C)C(=O)CN(C(=O)CN(CCCCN)C(=O)CN(CCCOC(C)C)C(=O)CNCCCCN)C(C)c1ccccc1` (stereo not shown) [TRBP6] (H-[Nlys][N((CH2)3OiPr)Gly][Nlys][X1][Nleu][Nme]KM-NH2; configuration not given here) here?
Its value is 100.0 ± 2.4%.

And the “TRBP-6 amount remains (%) in PBS pH 7.4” value ([1]; 1 h)?
Its value is 98.9 ± 6.5%.

What about the “TRBP-6 amount remains (%) in PBS pH 7.4” value ([1]; 3 h) of the same molecule?
The value was 95.5 ± 3.3%.

What about the “TRBP-6 amount remains (%) in PBS pH 7.4” value ([1]; 6 h) of the same molecule?
Its value is 94.6 ± 2.3%.

What about the “TRBP-6 amount remains (%) in PBS pH 7.4” value ([1]; 9 h) of the same molecule?
The value was 92.7 ± 0.2%.

And the “TRBP-6 amount remains (%) in PBS pH 7.4” value ([1]; 24 h)?
Its value is 91.3 ± 3.8%.

And the “efficacy of brain delivery compared with other compounds including Angiopep-2 (Ang) peptide” value ([2]; 25 nmol/mouse intravenously)?
The value was “much higher than other compounds”.

What about the “delivery of Cy5.5 into the brain” value ([2]; 25 nmol/mouse intravenously, imaging 5, 15, 30 min and ex vivo after perfusion) of the same molecule?
Its value is “effectively delivered Cy5.5 into the brain”.

What about the “efficiency in brain delivery compared with other compounds including Ang peptide” value ([2]; 30 minutes after injection, 25 nmol/mouse i.v.) of the same molecule?
Its value is “superior efficiency than other compounds”.

And the “binding of beads to transferrin receptor positive (red) vs negative (green) HeLa cells” value [3]?
The value was “only showed binding with red cells but not with green cells”.

And the solubility [4]?
Its solubility is over 496 mg/mL.

And the “TRBP-6 amount remains (%) in human plasma” value ([5]; 0 h, 1.4 mg/ml)?
The value was 100.0 ± 1.2%.

What about the “stability (overall statement)” value ([5]; PBS pH 7.4 and human plasma, up to 24 h) of the same molecule?
The value was “excellent stability”.

What about the remaining at 1 h, 1.4 mg/ml ([5]; human, human plasma, 1 h, 1.4 mg/ml, read-out: TRBP-6 amount remains (%) in human plasma) of the same molecule?
Its remaining at 1 h, 1.4 mg/ml is 99.5 ± 3.5%.

What about the remaining at 3 h, 1.4 mg/ml ([5]; human, human plasma, 3 h, 1.4 mg/ml, read-out: TRBP-6 amount remains (%) in human plasma) of the same molecule?
The remaining at 3 h, 1.4 mg/ml was 94 ± 2.1%.

And the remaining at 6 h, 1.4 mg/ml ([5]; human, human plasma, 6 h, 1.4 mg/ml, read-out: TRBP-6 amount remains (%) in human plasma)?
The remaining at 6 h, 1.4 mg/ml was 93 ± 5.3%.

What about the remaining at 9 h, 1.4 mg/ml ([5]; human, human plasma, 9 h, 1.4 mg/ml, read-out: TRBP-6 amount remains (%) in human plasma) of the same molecule?
The remaining at 9 h, 1.4 mg/ml was 92 ± 2.9%.

And the remaining at 24 h, 1.4 mg/ml ([5]; human, human plasma, 24 h, 1.4 mg/ml, read-out: TRBP-6 amount remains (%) in human plasma)?
The remaining at 24 h, 1.4 mg/ml was 90.3 ± 4.7%.

And the “binding to the transferrin receptor in pull-down assay” value [6]?
The value was “confirmed”.
